Consider one compound from patent publication US20110213335A1, “HOLLOW MICRONEEDLE ARRAY AND METHOD” (priority 2008, published 2011).

Molecules are shown by their SMILES. Structures can show the parent of a compound that is named as a salt.

Data set [1] in a line: Naloxone infusion by hollow microneedle array with resulting PK profile (serum naloxone by LCMSMS). As to conditions: female, pig, other: intradermal infusion by hollow microneedle device.
For data set [2] the following is noted: oral administration; cited from earlier work.

For the compound `C=CCN1CC[C@]23c4c5ccc(O)c4O[C@H]2C(=O)CC[C@@]3(O)[C@H]1C5` [naloxone, naloxone hydrochloride], the bioavailability in data set [1] turned out to be 107%. Also, the “bioavailability when administered orally” value in data set [2] is given as “about 2%”.
